Data reported in ChEMBL document CHEMBL1201862, “PubChem BioAssay data set” (2004).
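Protocol summary: plate cells (96-well), add compound at 5 concentrations, incubate 48 h, interpolate endpoints linearly. GI50 is the concentration that inhibits growth by half.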 The source made the active and inactive calls. No stated cut-off is given here; in the data, active = GI50 up to about 1.1 µM and inactive = higher.

Key:
Assay in all cases: inhibition of tumour cell growth, NCI panel, 48 h
COLO 205 = tested on: COLO 205
SNB-75 = tested on: SNB-75
OVCAR-3 = tested on: OVCAR-3
EKVX = tested on: EKVX
Hs-578T = tested on: Hs-578T
OVCAR-8 = tested on: OVCAR-8
M14 = tested on: M14
OVCAR-5 = tested on: OVCAR-5
RXF 393 = tested on: RXF 393
MCF7 = tested on: MCF7
MDA-MB-231 = tested on: MDA-MB-231
RPMI-8226 = tested on: RPMI-8226
HCC 2998 = tested on: HCC 2998
SR = tested on: SR
HT-29 = tested on: HT-29
NCI/ADR-RES = tested on: NCI/ADR-RES
TK-10 = tested on: TK-10
K562 = tested on: K562
MDA-N = tested on: MDA-N

SMILES	GI50 (COLO 205)	GI50 (SNB-75)	GI50 (OVCAR-3)	GI50 (EKVX)	GI50 (Hs-578T)	GI50 (OVCAR-8)	GI50 (M14)	GI50 (OVCAR-5)	GI50 (RXF 393)	GI50 (MCF7)	GI50 (MDA-MB-231)	GI50 (RPMI-8226)	GI50 (HCC 2998)	GI50 (SR)	GI50 (HT-29)	GI50 (NCI/ADR-RES)	GI50 (TK-10)	GI50 (K562)	GI50 (MDA-N)
CCCCc1ccc(Nc2nc(SC)c3[nH]cnc3n2)cc1	> 91.2 µM (inactive)	> 100 µM (inactive)	> 55 µM (inactive)	24.9 µM (inactive)	43 µM (inactive)	30.2 µM (inactive)	> 100 µM (inactive)	> 100 µM (inactive)	28.2 µM (inactive)	> 24.4 µM (inactive)	84.3 µM (inactive)	> 56 µM (inactive)	> 80.4 µM (inactive)	2.01 µM (inactive)	15.8 µM (inactive)	23.6 µM (inactive)	45.2 µM (inactive)	3.61 µM (inactive)	–
COc1ccc2c(=O)c3c([nH]c2c1)OCC3=O	> 100 µM (inactive)	> 100 µM (inactive)	–	> 100 µM (inactive)	> 100 µM (inactive)	> 100 µM (inactive)	> 100 µM (inactive)	–	> 100 µM (inactive)	> 100 µM (inactive)	> 100 µM (inactive)	> 100 µM (inactive)	> 100 µM (inactive)	> 100 µM (inactive)	> 100 µM (inactive)	> 100 µM (inactive)	> 100 µM (inactive)	36.5 µM (inactive)	–
COc1cc(C=O)c(-c2cc3c(cc2C2(C)OCCS2)OCO3)c(OC)c1OC (configuration not stated)	4.24 µM (inactive)	7.89 µM (inactive)	5.14 µM (inactive)	19.7 µM (inactive)	–	19.1 µM (inactive)	5.73 µM (inactive)	50 µM (inactive)	7.38 µM (inactive)	–	–	11.4 µM (inactive)	16.4 µM (inactive)	14.1 µM (inactive)	6.68 µM (inactive)	–	57.8 µM (inactive)	8.83 µM (inactive)	–
COc1ccc(C2=C(Cl)C(=O)N(c3ccc(OC)cc3OC)C(=O)C2(Cl)Cl)cc1	17.9 µM (inactive)	22.9 µM (inactive)	12.5 µM (inactive)	32.8 µM (inactive)	< 0.01 µM (active)	19.5 µM (inactive)	14.6 µM (inactive)	14.4 µM (inactive)	17.9 µM (inactive)	21 µM (inactive)	7.62 µM (inactive)	–	–	4.09 µM (inactive)	18.1 µM (inactive)	14.5 µM (inactive)	18.9 µM (inactive)	19.8 µM (inactive)	–
COc1ccc(N[C@H](C[S+]([O-])c2ccc(C)cc2)C(F)(F)F)cc1 (some centres not stated)	> 100 µM (inactive)	> 100 µM (inactive)	> 100 µM (inactive)	> 100 µM (inactive)	–	> 100 µM (inactive)	> 100 µM (inactive)	> 100 µM (inactive)	> 100 µM (inactive)	> 100 µM (inactive)	> 100 µM (inactive)	–	> 100 µM (inactive)	> 100 µM (inactive)	> 100 µM (inactive)	> 100 µM (inactive)	> 100 µM (inactive)	> 100 µM (inactive)	> 100 µM (inactive)
Cc1ccc(OC2CC(n3cnc4c(=O)[nH]c(Br)nc43)OC2Oc2ccc(C)cc2)cc1 (configuration not stated)	31 µM (inactive)	–	18.5 µM (inactive)	23.8 µM (inactive)	24.5 µM (inactive)	25.3 µM (inactive)	24.9 µM (inactive)	21.4 µM (inactive)	22.5 µM (inactive)	23.5 µM (inactive)	23 µM (inactive)	34.4 µM (inactive)	24 µM (inactive)	18.1 µM (inactive)	28.6 µM (inactive)	28.7 µM (inactive)	23.2 µM (inactive)	17.1 µM (inactive)	–
COC(NC(=O)Nc1ccccc1C)(C(F)(F)F)C(F)(F)F	> 100 µM (inactive)	> 100 µM (inactive)	> 100 µM (inactive)	–	> 100 µM (inactive)	> 100 µM (inactive)	> 100 µM (inactive)	> 100 µM (inactive)	1.21 µM (inactive)	> 100 µM (inactive)	–	> 100 µM (inactive)	> 100 µM (inactive)	> 100 µM (inactive)	> 100 µM (inactive)	> 100 µM (inactive)	> 100 µM (inactive)	77.1 µM (inactive)	> 100 µM (inactive)
COC1(OC)C(/C(N)=C\O)=NC(C)(C)N1O	57 µM (inactive)	66.2 µM (inactive)	29.9 µM (inactive)	> 100 µM (inactive)	–	> 100 µM (inactive)	> 100 µM (inactive)	> 100 µM (inactive)	> 100 µM (inactive)	74.6 µM (inactive)	> 100 µM (inactive)	> 100 µM (inactive)	> 100 µM (inactive)	> 100 µM (inactive)	> 100 µM (inactive)	> 100 µM (inactive)	–	> 100 µM (inactive)	> 100 µM (inactive)
